The results in this text go back to patent US11180474B2 (BRISTOL-MYERS SQUIBB COMPANY, priority 2016, dated 2021).

The target of the assay is T1, human TLR7 (Homo sapiens, UniProt Q9NYK1).
T1 construct: host or cells: HEK-Blue cells
T1 sequence (Q9NYK1 27-1049): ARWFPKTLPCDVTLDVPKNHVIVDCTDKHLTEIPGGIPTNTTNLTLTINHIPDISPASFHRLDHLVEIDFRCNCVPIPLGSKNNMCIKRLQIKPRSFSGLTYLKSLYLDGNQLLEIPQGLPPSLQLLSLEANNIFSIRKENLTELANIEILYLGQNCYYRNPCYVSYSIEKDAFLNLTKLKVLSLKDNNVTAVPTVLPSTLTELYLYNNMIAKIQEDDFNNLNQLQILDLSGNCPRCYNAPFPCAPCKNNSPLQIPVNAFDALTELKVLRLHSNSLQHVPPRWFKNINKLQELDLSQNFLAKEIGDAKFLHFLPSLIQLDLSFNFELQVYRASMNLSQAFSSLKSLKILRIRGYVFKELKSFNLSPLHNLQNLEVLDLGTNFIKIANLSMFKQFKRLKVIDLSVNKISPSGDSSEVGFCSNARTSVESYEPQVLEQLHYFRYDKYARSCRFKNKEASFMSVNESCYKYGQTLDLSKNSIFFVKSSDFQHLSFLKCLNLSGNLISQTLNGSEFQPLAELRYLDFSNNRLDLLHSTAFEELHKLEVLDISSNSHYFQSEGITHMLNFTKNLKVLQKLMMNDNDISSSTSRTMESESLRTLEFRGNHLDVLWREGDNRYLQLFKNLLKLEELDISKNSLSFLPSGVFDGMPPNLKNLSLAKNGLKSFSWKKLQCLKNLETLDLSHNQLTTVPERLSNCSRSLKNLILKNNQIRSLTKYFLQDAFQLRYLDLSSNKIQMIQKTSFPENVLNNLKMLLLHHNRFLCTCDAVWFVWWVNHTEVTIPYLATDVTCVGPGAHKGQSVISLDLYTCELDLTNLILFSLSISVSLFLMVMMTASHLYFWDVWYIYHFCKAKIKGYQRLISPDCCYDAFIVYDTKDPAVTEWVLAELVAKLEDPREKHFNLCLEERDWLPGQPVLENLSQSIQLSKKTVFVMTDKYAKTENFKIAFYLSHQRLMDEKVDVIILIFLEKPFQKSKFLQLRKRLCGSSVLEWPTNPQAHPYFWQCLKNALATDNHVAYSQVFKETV
Nature of the assay: TLR7 inhibition reporter assay (HEK-Blue cells, SEAP reporter, gardiquimod stimulation). The class given is cell-based. The note with it: HEK-Blue cells overexpressing human TLR7, gardiquimod 7.5 μM. An outline of the steps: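 Dose-response testing from 0.05 nM to 50 μM final was done on reporter cells for 22 hours at 37° C. Secreted SEAP was then detected, and inhibition was calculated as percent reduction of the agonist-plus-DMSO signal compared with wells given a known inhibitor.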
For orientation: IC50 means the concentration needed to halve the response being measured. High values mean a need for much substance, low ones inhibition by little substance. The compound `COc1ccc(-c2[nH]c3ccc(C4CCN(C5CCN(CC6CC6)CC5)CC4)cc3c2C)cc1OC` [Example 3, 5-(1′-(cyclopropylmethyl)-[1,4′-bipiperidin]-4-yl)-2-(3,4-dimethoxyphenyl)-3-methyl-1H-indole] yielded a concentration for half-maximal inhibition (IC50) of 339 nM.

Regarding `COc1ccc(-c2[nH]c3ccc(C4CCN(C(C)CO)CC4)cc3c2C)cc1OC` (centres unmarked) [Example 43, 2-(4-(2-(3,4-dimethoxyphenyl)-3-methyl-1H-indol-5-yl)piperidin-1-yl)propan-1-ol], half-maximal inhibition (IC50) was put at 1160 nM.

Take `CCN1CCC(N2CCC(c3ccc4[nH]c(-c5ccc(OC)c(OC)c5)c(C)c4c3)CC2)CC1` [Example 44, 2-(3,4-dimethoxyphenyl)-5-(1′-ethyl-[1,4′-bipiperidin]-4-yl)-3-methyl-1H-indole]: the IC50 amounted to 468 nM. Next, `COc1ccc(-c2[nH]c3ccc(C4CCN(C5CC(C)(C)NC(C)(C)C5)CC4)cc3c2C)cc1OC` [Example 48, 2-(3,4-dimethoxyphenyl)-3-methyl-5-(2′,2′,6′,6′-tetramethyl-[1,4′-bipiperidin]-4-yl)-1H-indole]: 560 nM. For `COc1ccc(-c2[nH]c3ccc(C4CCN(CC5CCCCN5C)CC4)cc3c2C)cc1OC` (centres unmarked) [Example 49, 2-(3,4-dimethoxyphenyl)-3-methyl-5-(1-((1-methylpiperidin-2-yl)methyl)piperidin-4-yl)-1H-indole], the 50% inhibitory concentration (IC50) is 1360 nM. This IC50 is about 2.4-fold higher than that of the compound before.

On to `COc1ccc(-c2[nH]c3ccc(C4CCN(C5CCN(CCC(F)(F)F)CC5)CC4)cc3c2C)cc1OC` [Example 50, 2-(3,4-dimethoxyphenyl)-3-methyl-5-(1′-(3,3,3-trifluoropropyl)-[1,4′-bipiperidin]-4-yl)-1H-indole], for which the concentration for half-maximal inhibition (IC50) stood at 1090 nM.

Compound `COc1ccc(-c2[nH]c3ccc(C4CCN(C5CCN(CC(O)CO)CC5)CC4)cc3c2C)cc1OC` (centres unmarked) [Example 52, 3-(4-(2-(3,4-dimethoxyphenyl)-3-methyl-1H-indol-5-yl)-[1,4′-bipiperidin]-1′-yl)propane-1,2-diol] registered a 50% inhibitory concentration (IC50) of 230 nM.

As for `CCCCCN1CCC(N2CCC(c3ccc4[nH]c(-c5ccc(OC)c(OC)c5)c(C)c4c3)CC2)CC1` [Example 55, 2-(3,4-dimethoxyphenyl)-3-methyl-5-(1′-pentyl-[1,4′-bipiperidin]-4-yl)-1H-indole], the IC50 was 86 nM. Compound `COc1ccc(-c2[nH]c3ccc(C4CCN(C5CCN(CC6CCCCC6)CC5)CC4)cc3c2C)cc1OC` [Example 58, 5-(1′-(cyclohexylmethyl)-[1,4′-bipiperidin]-4-yl)-2-(3,4-dimethoxyphenyl)-3-methyl-1H-indole] returned an IC50 of 266 nM. Compared with the last compound, the IC50 is about 3.1-fold higher.

In turn, `COc1ccc(-c2[nH]c3ccc(C4CCN(C5CCN(Cc6cncn6C)CC5)CC4)cc3c2C)cc1OC` [Example 59, 2-(3,4-dimethoxyphenyl)-3-methyl-5-(1′-((1-methyl-1H-imidazol-5-yl)methyl)-[1,4′-bipiperidin]-4-yl)-1H-indole] yielded an IC50 of 477 nM. To `COc1ccc(-c2[nH]c3ccc(C4CCN(C5CCN(C6CCCC6)CC5)CC4)cc3c2C)cc1OC` [Example 62, 5-(1′-cyclopentyl-[1,4′-bipiperidin]-4-yl)-2-(3,4-dimethoxyphenyl)-3-methyl-1H-indole] belongs 225 nM; to `COc1ccc(-c2[nH]c3ccc(C4CCN(C5CCN(Cc6cccs6)CC5)CC4)cc3c2C)cc1OC` [Example 64, 2-(3,4-dimethoxyphenyl)-3-methyl-5-(1′-(thiophen-2-ylmethyl)-[1,4′-bipiperidin]-4-yl)-1H-indole], 163 nM. To `COc1ccc(-c2[nH]c3ccc(C4CCN(C5CCN(CC6CCCC6)CC5)CC4)cc3c2C)cc1OC` [Example 65, 5-(1′-(cyclopentylmethyl)-[1,4′-bipiperidin]-4-yl)-2-(3,4-dimethoxyphenyl)-3-methyl-1H-indole] belongs 24000 nM; to `COc1ccc(-c2[nH]c3ccc(C4CCN(C5CCN(C6CCCCC6)CC5)CC4)cc3c2C)cc1OC` [Example 68, 5-(1′-cyclohexyl-[1,4′-bipiperidin]-4-yl)-2-(3,4-dimethoxyphenyl)-3-methyl-1H-indole], 288 nM. Next, `COc1ccc(-c2[nH]c3ccc(C4CCN(C5CCN(CC(C)(C)CO)CC5)CC4)cc3c2C)cc1OC` [Example 69, 3-(4-(2-(3,4-dimethoxyphenyl)-3-methyl-1H-indol-5-yl)-[1,4′-bipiperidin]-1′-yl)-2,2-dimethylpropan-1-ol]: 238 nM; `COc1ccc(-c2[nH]c3ccc(C4CCN(C5CCN(Cc6nccs6)CC5)CC4)cc3c2C)cc1OC` [Example 72, 2-((4-(2-(3,4-dimethoxyphenyl)-3-methyl-1H-indol-5-yl)-[1,4′-bipiperidin]-1′-yl)methyl)thiazole]: 563 nM. For `COc1ccc(-c2[nH]c3ccc(C4CCN(C5CCN(CC6CCOC6)CC5)CC4)cc3c2C)cc1OC` (centres unmarked) [Example 74], the half-inhibitory concentration (IC50) came out at 1080 nM. Against the preceding compound, the IC50 is about 1.9-fold higher.

`COc1ccc(-c2[nH]c3ccc(C4CCN(C5CCN(CC(C)(C)C)CC5)CC4)cc3c2C)cc1OC` [Example 75, 2-(3,4-dimethoxyphenyl)-3-methyl-5-(1′-neopentyl-[1,4′-bipiperidin]-4-yl)-1H-indole] yielded a half-inhibitory concentration (IC50) of 734 nM. Next, `COc1ccc(-c2[nH]c3ccc(C4CCN(C5CCN(Cc6ccco6)CC5)CC4)cc3c2C)cc1OC` [Example 76, 2-(3,4-dimethoxyphenyl)-5-(1′-(furan-2-ylmethyl)-[1,4′-bipiperidin]-4-yl)-3-methyl-1H-indole]: 147 nM.

As for `COc1ccc(-c2[nH]c3ccc(C4CCN(C5CCN(Cc6cccn6C)CC5)CC4)cc3c2C)cc1OC` [Example 78, 2-(3,4-dimethoxyphenyl)-3-methyl-5-(1′-((1-methyl-1H-pyrrol-2-yl)methyl)-[1,4′-bipiperidin]-4-yl)-1H-indole], the half-maximal inhibitory concentration (IC50) amounted to 223 nM. Next, `COc1ccc(-c2[nH]c3ccc(C4CCN(C5CCN(C6CCC(C)CC6)CC5)CC4)cc3c2C)cc1OC` (centres unmarked) [Example 80, 2-(3,4-dimethoxyphenyl)-3-methyl-5-(1′-(4-methylcyclohexyl)-[1,4′-bipiperidin]-4-yl)-1H-indole]: 433 nM; `COc1ccc(-c2[nH]c3ccc(C4CCN(C5CCN(C6CCC(O)CC6)CC5)CC4)cc3c2C)cc1OC` (centres unmarked) [Example 84, 4-(4-(2-(3,4-dimethoxyphenyl)-3-methyl-1H-indol-5-yl)-[1,4′-bipiperidin]-1′-yl)cyclohexan-1-ol]: 490 nM; `COc1ccc(-c2[nH]c3ccc(C4CCN(C5CCCN(C)CC5)CC4)cc3c2C)cc1OC` (centres unmarked) [Example 91, 2-(3,4-dimethoxyphenyl)-3-methyl-5-(1-(1-methylazepan-4-yl)piperidin-4-yl)-1H-indole]: 829 nM. `COc1ccc(-c2[nH]c3ccc(C4CCN(C5CCCN(C6CCCC6)CC5)CC4)cc3c2C)cc1OC` (centres unmarked) [Example 93, 5-(1-(1-cyclopentylazepan-4-yl)piperidin-4-yl)-2-(3,4-dimethoxyphenyl)-3-methyl-1H-indole] came in with a half-inhibitory concentration (IC50) of 903 nM. This IC50 and that of the compound before are within 1.5-fold of each other. To `COc1ccc(-c2[nH]c3ccc(C4CCN(C5CCCN(CC6CC6)CC5)CC4)cc3c2C)cc1OC` (centres unmarked) [Example 94, 5-(1-(1-(cyclopropylmethyl)azepan-4-yl)piperidin-4-yl)-2-(3,4-dimethoxyphenyl)-3-methyl-1H-indole] belongs 1770 nM; to `COc1ccc(-c2[nH]c3ccc(C4CCN(C5CCCN(CC(C)C)CC5)CC4)cc3c2C)cc1OC` (centres unmarked) [Example 95, 2-(3,4-dimethoxyphenyl)-5-(1-(1-isobutylazepan-4-yl)piperidin-4-yl)-3-methyl-1H-indole], 819 nM; to `CCN1CCCC(N2CCC(c3ccc4[nH]c(-c5ccc(OC)c(OC)c5)c(C)c4c3)CC2)CC1` (centres unmarked) [Example 97, 2-(3,4-dimethoxyphenyl)-5-(1-(1-ethylazepan-4-yl)piperidin-4-yl)-3-methyl-1H-indole], 931 nM.

On to `COc1ccc(-c2[nH]c3ccc(C4CCN(C(=O)CNCCC(C)O)CC4)cc3c2C)cc1OC` (centres unmarked) [Example 406, 1-(4-(2-(3,4-dimethoxyphenyl)-3-methyl-1H-indol-5-yl)piperidin-1-yl)-2-((3-hydroxybutyl)amino)ethan-1-one], for which inhibition was half-maximal at 1180 nM (IC50). To `COc1ccc(-c2[nH]c3ccc(C4CCN(C(=O)CN5CCC(N(C)C)CC5)CC4)cc3c2C)cc1OC` [Example 407, 1-(4-(2-(3,4-dimethoxyphenyl)-3-methyl-1H-indol-5-yl)piperidin-1-yl)-2-(4-(dimethylamino)piperidin-1-yl)ethan-1-one] belongs 12300 nM.
